The record followed here is patent publication US20160157484A1, “NATURAL ANTIMICROBIAL COMPOSITIONS” (Lincoln Manufacturing Inc., priority 2011, published 2016).

This data set in a line: Solubility and stability of 20% and 25% lauric acid in solvents and solvent mixtures.

With Glycereth 2-Cocoate, the “Solubility of 20% Lauric Acid” value (20% lauric acid in the named solvent) was “Not Soluble”. Besides, where the note is “25% lauric acid in the named solvent”, the “Solubility of 25% Lauric Acid” value is reported as “Not Soluble”.
